Measurements: US12077503B2, “Substituted cyclic amides and their use as herbicides” (FMC CORPORATION, priority 2015, dated 2024)
Like-named read-outs stand apart in the source and are kept apart here.

Legend:
Type in all cases: in vivo
[1] = test system: ragweed (common ragweed, Ambrosia elatior); experiment: Test A preemergence; settings: Ambrosia artemisiifolia, pre-emergence, 240 h; for pest or weed control at 125 g/ha: 125 g ai/ha, 0 to 100 scale where 0 is no effect and 100 is complete control; for pest or weed control at 500 g/ha: 500 g ai/ha
Outline: (§1)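 Visual injury scores from 0, no effect, to 100, complete control, were assigned versus untreated controls roughly 10 d after treatment in the greenhouse. Test chemicals, formulated with surfactant in a non-phytotoxic solvent, were applied to planted seeds as a preemergence soil spray or postemergence to one- to two-leaf plants 2 to 10 cm tall, in loam–sand soil.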

Kochia (Kochia scoparia) [2] = experiment: Test A preemergence; settings: Bassia scoparia, pre-emergence, 240 h; for pest or weed control at 125 g/ha: 125 g ai/ha, 0 to 100 scale where 0 is no effect and 100 is complete control; for pest or weed control at 500 g/ha: 500 g ai/ha
Outline: as §1

[3] = test system: pigweed (Amaranthus retroflexus); experiment: Test A preemergence; settings: Amaranthus retroflexus, pre-emergence, 240 h; for pest or weed control at 125 g/ha: 125 g ai/ha, 0 to 100 scale where 0 is no effect and 100 is complete control; for pest or weed control at 500 g/ha: 500 g ai/ha
[4] = test system: ryegrass, Italian (Italian ryegrass, Lolium multiflorum); experiment: Test A preemergence; settings: Lolium multiflorum, pre-emergence, 240 h; for pest or weed control at 125 g/ha: 125 g ai/ha, 0 to 100 scale where 0 is no effect and 100 is complete control; for pest or weed control at 500 g/ha: 500 g ai/ha
Outline: as §1

[5] = test system: giant foxtail (Setaria faberii); experiment: Test A preemergence; settings: Setaria faberi, pre-emergence, 240 h; for pest or weed control at 125 g/ha: 125 g ai/ha, 0 to 100 scale where 0 is no effect and 100 is complete control; for pest or weed control at 500 g/ha: 500 g ai/ha
Outline: as §1

[6] = test system: barnyardgrass (Echinochloa crus-galli); experiment: Test A preemergence; settings: Echinochloa crus-galli, pre-emergence, 240 h; for pest or weed control at 125 g/ha: 125 g ai/ha, 0 to 100 scale where 0 is no effect and 100 is complete control; for pest or weed control at 500 g/ha: 500 g ai/ha
Outline: as §1

[7] = test system: ragweed (common ragweed, Ambrosia elatior); experiment: Test A postemergence; settings: Ambrosia artemisiifolia, post-emergence, 240 h, 125 g ai/ha, visual injury after approximately 10 d, read-out: Plant response rating, Ragweed
Outline: as §1

[8] = test system: blackgrass (Alopecurus myosuroides); experiment: Test A postemergence; settings: Alopecurus myosuroides, post-emergence, 240 h, 125 g ai/ha, visual injury after approximately 10 d, read-out: Plant response rating, Blackgrass
Outline: as §1

Kochia (Kochia scoparia) [9] = experiment: Test A postemergence; settings: Bassia scoparia, post-emergence, 240 h, 125 g ai/ha, visual injury after approximately 10 d, read-out: Plant response rating, Kochia
Outline: as §1

[10] = test system: Galium (catchweed bedstraw, Galium aparine); experiment: Test A postemergence; settings: Galium, post-emergence, 240 h, 125 g ai/ha, visual injury after approximately 10 d, read-out: Plant response rating, Galium
Outline: as §1

[11] = test system: pigweed (Amaranthus retroflexus); experiment: Test A postemergence; settings: Amaranthus retroflexus, post-emergence, 240 h, 125 g ai/ha, visual injury after approximately 10 d, read-out: Plant response rating, Pigweed
Outline: as §1

corn (Zea mays) = experiment: Test A postemergence; settings: Zea mays, post-emergence, 240 h, 125 g ai/ha, visual injury after approximately 10 d
Outline: as §1

[12] = test system: ryegrass, Italian (Italian ryegrass, Lolium multiflorum); experiment: Test A postemergence; settings: Lolium multiflorum, post-emergence, 240 h, 125 g ai/ha, visual injury after approximately 10 d, read-out: Plant response rating, Ryegrass, Italian
Outline: as §1

[13] = test system: giant foxtail (Setaria faberii); experiment: Test A postemergence; settings: Setaria faberi, post-emergence, 240 h, 125 g ai/ha, visual injury after approximately 10 d, read-out: Plant response rating, Foxtail, Giant
Outline: as §1

[14] = test system: barnyardgrass (Echinochloa crus-galli); experiment: Test A postemergence; settings: Echinochloa crus-galli, post-emergence, 240 h, 125 g ai/ha, visual injury after approximately 10 d, read-out: Plant response rating, Barnyardgrass
Outline: as §1

[15] = test system: wheat (Triticum aestivum); experiment: Test A postemergence; settings: Triticum aestivum, post-emergence, 240 h, 125 g ai/ha, visual injury after approximately 10 d, read-out: Plant response rating, Wheat
Outline: as §1

[16] = Postemergence, 0 to 100 scale where 0 is no effect and 100 is complete control
[17] = postemergence, 0 to 100 scale (0 no effect, 100 complete control)

Molecule `CS(=O)(=O)c1ccccc1NC(=O)[C@H]1C(=O)N(C2CC2)CC[C@@H]1c1cccc(C(F)(F)F)c1` [Compound 927] has a pest or weed control at 125 g/ha ([1]; preemergence, read-out: Ragweed plant response rating) of 0%, a pest or weed control at 500 g/ha ([1]; preemergence, visual injury rating about 10 d after treatment, 0 to 100 scale (0 no effect, 100 complete control), read-out: Ragweed plant response rating) of 0% and a pest or weed control at 125 g/ha (Kochia (Kochia scoparia) [2]; preemergence, read-out: Kochia plant response rating) of 0%. The pest or weed control at 500 g/ha (Kochia (Kochia scoparia) [2]; preemergence, visual injury rating about 10 d after treatment, 0 to 100 scale (0 no effect, 100 complete control), read-out: Kochia plant response rating) was 0%, the pest or weed control at 125 g/ha ([3]; preemergence, read-out: Pigweed plant response rating) was 0% and the pest or weed control at 500 g/ha ([3]; preemergence, visual injury rating about 10 d after treatment, 0 to 100 scale (0 no effect, 100 complete control), read-out: Pigweed plant response rating) was 0%. The pest or weed control at 125 g/ha ([4]; preemergence, read-out: Ryegrass, Italian plant response rating) was 0%, the pest or weed control at 500 g/ha ([4]; preemergence, visual injury rating about 10 d after treatment, 0 to 100 scale (0 no effect, 100 complete control), read-out: Ryegrass, Italian plant response rating) was 0% and the pest or weed control at 125 g/ha ([5]; preemergence, read-out: Foxtail, Giant plant response rating) was 0%. The pest or weed control at 500 g/ha ([5]; preemergence, visual injury rating about 10 d after treatment, 0 to 100 scale (0 no effect, 100 complete control), read-out: Foxtail, Giant plant response rating) was 70%, the pest or weed control at 125 g/ha ([6]; preemergence, read-out: Barnyardgrass plant response rating) was 0% and the pest or weed control at 500 g/ha ([6]; preemergence, visual injury rating about 10 d after treatment, 0 to 100 scale (0 no effect, 100 complete control), read-out: Barnyardgrass plant response rating) was 70%. The pest or weed control at 125 g/ha [7, 16] was 0%, the pest or weed control at 125 g/ha [8, 16] was 0% and the pest or weed control at 125 g/ha (Kochia (Kochia scoparia) [9]; [16]) was 0%. The pest or weed control at 125 g/ha [10, 16] was 0%, the pest or weed control at 125 g/ha [11, 16] was 0% and the Corn plant response rating (crop injury, 0 = no effect, 100 = complete kill) at 125 g/ha (corn (Zea mays); [16]) was 0%. It also gave a pest or weed control at 125 g/ha [12, 16] of 0%, a pest or weed control at 125 g/ha [13, 16] of 0% and a pest or weed control at 125 g/ha [14, 16] of 0%. The plant injury at 125 g/ha [15, 16] was 0%.

`O=C1NC[C@H](c2ccc(OC(F)F)cc2)[C@H]1C(=O)Nc1ccccc1F` [Compound 778] showed a pest or weed control at 125 g/ha ([1]; preemergence, visual rating after approx. 10 d, read-out: Plant response rating, Ragweed) of 40%, a pest or weed control at 500 g/ha ([1]; Preemergence, visual injury vs untreated controls after approximately 10 d, read-out: Ragweed plant response rating (0 to 100 scale where 0 is no effect and 100 is complete control)) of 60% and a pest or weed control at 125 g/ha (Kochia (Kochia scoparia) [2]; preemergence, visual rating after approx. 10 d, read-out: Plant response rating, Kochia) of 80%. For the same molecule, the pest or weed control at 500 g/ha (Kochia (Kochia scoparia) [2]; Preemergence, visual injury vs untreated controls after approximately 10 d, read-out: Kochia plant response rating (0 to 100 scale where 0 is no effect and 100 is complete control)) was 80%, the pest or weed control at 125 g/ha ([3]; preemergence, visual rating after approx. 10 d, read-out: Plant response rating, Pigweed) was 30% and the pest or weed control at 500 g/ha ([3]; Preemergence, visual injury vs untreated controls after approximately 10 d, read-out: Pigweed plant response rating (0 to 100 scale where 0 is no effect and 100 is complete control)) was 80%. The pest or weed control at 125 g/ha ([4]; preemergence, visual rating after approx. 10 d, read-out: Plant response rating, Ryegrass, Italian) was 0%, the pest or weed control at 500 g/ha ([4]; Preemergence, visual injury vs untreated controls after approximately 10 d, read-out: Ryegrass, Italian plant response rating (0 to 100 scale where 0 is no effect and 100 is complete control)) was 20% and the pest or weed control at 125 g/ha ([5]; preemergence, visual rating after approx. 10 d, read-out: Plant response rating, Foxtail, Giant) was 90%. For the same molecule, the pest or weed control at 500 g/ha ([5]; Preemergence, visual injury vs untreated controls after approximately 10 d, read-out: Foxtail, Giant plant response rating (0 to 100 scale where 0 is no effect and 100 is complete control)) was 90%, the pest or weed control at 125 g/ha ([6]; preemergence, visual rating after approx. 10 d, read-out: Plant response rating, Barnyardgrass) was 70% and the pest or weed control at 500 g/ha ([6]; Preemergence, visual injury vs untreated controls after approximately 10 d, read-out: Barnyardgrass plant response rating (0 to 100 scale where 0 is no effect and 100 is complete control)) was 90%. For the same molecule, the pest or weed control at 125 g/ha [7, 17] was 0%, the pest or weed control at 125 g/ha [8, 17] was 10% and the pest or weed control at 125 g/ha (Kochia (Kochia scoparia) [9]; [17]) was 60%. It also gave a pest or weed control at 125 g/ha [10, 17] of 60%, a pest or weed control at 125 g/ha [11, 17] of 10% and a Corn plant response rating (crop injury, 0 = no effect, 100 = complete kill) at 125 g/ha (corn (Zea mays); [17]) of 0%. For the same molecule, the pest or weed control at 125 g/ha [12, 17] was 20%, the pest or weed control at 125 g/ha [13, 17] was 70% and the pest or weed control at 125 g/ha [14, 17] was 80%. It also gave a plant injury at 125 g/ha [15, 17] of 0%.
